How the values were obtained:
[1] = system: HCV replicon RNA in Huh 11-7 cell line; assay: Cell-Based Replicon Assay; settings: Hepatitis C virus, 96 h; Huh 11-7 cells, 4 days
Description: Quantification of HCV replicon RNA (HCV Cell Based Assay) is accomplished using the Huh 11-7 cell line (Lohmann, et al Science 285:110-113, 1999). Cells are seeded at 4×10^3 cells/well in 96 well plates and fed media containing DMEM (high glucose), 10% fetal calf serum, penicillin-streptomycin and non-essential amino acids. Cells are incubated in a 7.5% CO2 incubator at 37° C. At the end of the incubation period, total RNA is extracted and purified from cells using Ambion RNAqueous 96 Kit (Catalog No. AM1812). To amplify the HCV RNA so that sufficient material can be detected by an HCV specific probe (below), primers specific for HCV (below) mediate both the reverse transcription of the HCV RNA and the amplification of the cDNA by polymerase chain reaction (PCR) using the TaqMan One-Step RT-PCR Master Mix Kit (Applied Biosystems catalog no. 4309169). The nucleotide sequences of the RT-PCR primers, which are located in the NS5B region of the HCV genome, are the following:
Detection of the RT-PCR product is accomplished using the Applied Biosystems (ABI) Prism 7500 Sequence Detection System (SDS) that detects the fluorescence that is emitted when the probe, which is labeled with a fluorescence reporter dye and a quencher dye, is degraded during the PCR reaction. The increase in the amount of fluorescence is measured during each cycle of PCR and reflects the increasing amount of RT-PCR product. Specifically, quantification is based on the threshold cycle, where the amplification plot crosses a defined fluorescence threshold. […] The data is analyzed using the ABI SDS program version 1.7. […]
The RT-PCR product was detected using the following labeled probe: […]
To normalize the data to an internal control molecule within the cellular RNA, RT-PCR is performed on the cellular messenger RNA glyceraldehyde-3-phosphate dehydrogenase (GAPDH). […] GAPDH RT-PCR is performed on the same RNA sample from which the HCV copy number is determined. […] The ratio of HCV/GAPDH RNA is used to calculate the activity of compounds evaluated for inhibition of HCV RNA replication. […]

[2] = biological target: full-length NS3 HCV protease 1b tethered with NS4A cofactor (Hepatitis C virus genotype 1b, UniProt Q9WMX2); assay: NS3/NS4a Protease Enzyme Assay; type: biochemical
Description: HCV protease activity and inhibition is assayed using an internally quenched fluorogenic substrate. A DABCYL and an EDANS group are attached to opposite ends of a short peptide. Quenching of the EDANS fluorescence by the DABCYL group is relieved upon proteolytic cleavage. Fluorescence is measured with a Molecular Devices Fluoromax (or equivalent) using an excitation wavelength of 355 nm and an emission wavelength of 485 nm.
The assay is run in Corning white half-area 96-well plates (VWR 29444-312 [Corning 3693]) with full-length NS3 HCV protease 1b tethered with NS4A cofactor (final enzyme concentration 1 to 15 nM). The assay buffer is complemented with 10 μM NS4A cofactor Pep 4A (Anaspec 25336 or in-house, MW 1424.8). RET S1 (Ac-Asp-Glu-Asp(EDANS)-Glu-Glu-Abu-[COO]Ala-Ser-Lys-(DABCYL)-NH2, AnaSpec 22991, MW 1548.6) is used as the fluorogenic peptide substrate. The assay buffer contains 50 mM Hepes at pH 7.5, 30 mM NaCl and 10 mM BME. The enzyme reaction is followed over a 30 minutes time course at room temperature in the absence and presence of inhibitors.
The peptide inhibitors HCV Inh 1 (Anaspec 25345, MW 796.8) Ac-Asp-Glu-Met-Glu-Glu-Cys-OH, [−20° C.] and HCV Inh 2 (Anaspec 25346, MW 913.1) Ac-Asp-Glu-Dif-Cha-Cys-OH, are used as reference compounds.
IC50 values are calculated using XLFit in ActivityBase (IDBS) using equation 205: y=A+((B−A)/(1+((C/x)^D))).

[3] = Pharmacokinetic analysis, single oral dose in rat; settings: in vivo, single oral dose of 20 mg/kg

full-length NS3 HCV protease 1b tethered with NS4A cofactor, sequence (Q9WMX2 1027-1657, other chains not shown): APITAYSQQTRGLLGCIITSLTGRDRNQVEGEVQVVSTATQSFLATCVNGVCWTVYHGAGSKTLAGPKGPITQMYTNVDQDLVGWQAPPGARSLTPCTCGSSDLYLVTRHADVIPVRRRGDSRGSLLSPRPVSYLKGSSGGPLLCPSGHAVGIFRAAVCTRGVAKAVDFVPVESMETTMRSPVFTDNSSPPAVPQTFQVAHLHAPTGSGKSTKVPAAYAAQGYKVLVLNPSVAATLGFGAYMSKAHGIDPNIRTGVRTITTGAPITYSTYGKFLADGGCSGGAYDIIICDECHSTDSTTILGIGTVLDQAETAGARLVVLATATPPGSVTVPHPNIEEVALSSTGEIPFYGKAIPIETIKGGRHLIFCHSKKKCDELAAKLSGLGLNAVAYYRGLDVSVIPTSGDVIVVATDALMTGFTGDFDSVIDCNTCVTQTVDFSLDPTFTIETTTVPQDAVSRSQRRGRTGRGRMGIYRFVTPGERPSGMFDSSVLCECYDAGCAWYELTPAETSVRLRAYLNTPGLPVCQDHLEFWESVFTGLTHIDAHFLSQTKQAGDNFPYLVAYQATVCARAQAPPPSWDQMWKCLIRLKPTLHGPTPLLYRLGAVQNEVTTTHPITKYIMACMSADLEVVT

| SMILES | EC50 [1] [nM] | IC50 [2] [nM] | AUC [3] [ng·h/mL] | Cmax [3] [ng/mL] | bioavailability [3] [%] |
| --- | --- | --- | --- | --- | --- |
| COc1ccc(-c2nnn(C3CC4C(=O)NC5(C(=O)NS(=O)(=O)C6CC6)CC5C=CCCCCCC(NC(=O)OC5CCCC5)C(=O)N4C3)n2)cc1 (stereo not drawn) [Example 36] | 0.8 | 0.1 | 52900 | 16100 | 76 |
| O=C(NC1CCCCCC=CC2CC2(C(=O)NS(=O)(=O)C2CC2)NC(=O)C2CC(n3nnc(-c4cccc5ccccc45)n3)CN2C1=O)OC1CCCC1 (stereo not drawn) [Example 117] | 0.8 | 0.2 |  |  |  |
| COc1ccc(-n2nnc(C3CC4C(=O)NC5(C(=O)NS(=O)(=O)C6CC6)CC5C=CCCCCCC(NC(=O)OC5CCCC5)C(=O)N4C3)n2)cc1 (stereo not drawn) [Example 101] | 0.8 | 0.4 |  |  |  |
